The pIC50 is the IC50 on a negative log10 scale, so that one unit is a factor of ten.

The test has as its system P. falciparum 3D7 gametocytes. Kind of test: alamarBlue gametocyte viability assay, strain 3D7. The format is cell-based, Plasmodium falciparum. The following applies: Malaria Box; for Max Resp: DMSO set at 0%, 100 nM epoxomicin set at -100%; for Curve Class / pIC50 / IC50: stages III-V 3D7 gametocytes; for pIC50 / IC50: 11 concentrations, 1:3 dilution; for pIC50: read-out: IC50. (In general: Resazurin is reduced to fluorescent resorufin, in cell work by metabolically active cells.)

Molecules are shown by their SMILES. pIC50: −log10 of the molar value. Read-outs that look alike come from different tables or passages of the source.

Regarding `Cl.c1ccc2c(NCCCCCCNc3c4c(nc5ccccc35)CCCC4)c3c(nc2c1)CCCC3` [MMV019555], the “Max Resp” value is listed as -104%, the “Curve Class” value was -1.1 and the pIC50 was 5.33.

As to `COc1ccc(N2CCN(C(CNC(=O)C3CCCCC3)c3ccc4c(c3)OCO4)CC2)cc1` (stereo not drawn) [MMV019662], the “Max Resp” value was -21%, the “Curve Class” value stood at 4 and the IC50 entry is on record as “Inactive”.

On to `O=C(Nc1ccc(N2CCN(Cc3ccccc3)CC2)cc1)c1cccs1.O=C(O)C(F)(F)F` [MMV019670], for which the “Max Resp” value worked out at 13%, the “Curve Class” value stood at 4 and the IC50 entry was “Inactive”.

On to `COc1ccc(C2NCCc3c2[nH]c2ccccc32)cc1CN1CCN(c2ccc(F)cc2)CC1.Cl` (stereo not drawn) [MMV019690], for which the “Max Resp” value is listed as -89%, the “Curve Class” value was -1.1 and the pIC50 is 5.18.

Regarding `O=C(Nc1ccc(N2CCCCC2)c(Cl)c1)c1ccc(Br)o1` [MMV019700], the “Max Resp” value stood at 17%, the “Curve Class” value is 4 and the IC50 entry is “Inactive”.

In the case of `Cc1[nH]c(-c2ccc(F)cc2)cc1C(=O)NC1CCN(Cc2ccccc2)CC1` [MMV019738], the “Max Resp” value is given as -61%, the “Curve Class” value was -2.2 and the pIC50 is 4.53.

As to `Cc1ccc(C)c(Cn2c(N3CCC(C(=O)NCc4cccs4)CC3)nc3ccccc32)c1` [MMV019741], the “Max Resp” value is on record as -65%, the “Curve Class” value is listed as -2.2 and the pIC50 is 4.43.

As to `Cc1ccc(Cl)cc1N1CCN(CCCNC(=O)C2CCN(c3nc4ccccc4[nH]3)CC2)CC1` [MMV019746], the “Max Resp” value is -74%, the “Curve Class” value is -2.2 and the negative logarithm of the IC50 (pIC50) was 4.53.

Consider `COc1ccc(C(=O)Nc2ccc3nc(N4CCCCC4)cc(C)c3c2)cc1OC` [MMV019758], for which the “Max Resp” value is given as -32%, the “Curve Class” value was -3 and the IC50 entry is “Inactive”.

Regarding `COc1cccc(C(=O)Nc2ccc(-c3nc4ccccc4[nH]3)cc2)c1` [MMV019762], the “Max Resp” value is recorded as -1%, the “Curve Class” value worked out at 4 and the IC50 entry is “Inactive”.

As for `Cc1cc(C)c2nc(N3CCC(C(=O)NCCCN4CCC(N5CCCCC5)CC4)CC3)sc2c1` [MMV019780], the “Max Resp” value is -106%, the “Curve Class” value is recorded as -1.1 and the negative logarithm of the IC50 (pIC50) is 5.38.

For `Fc1ccc2[nH]c3c(NCCCN4CCOCC4)ncnc3c2c1` [MMV019871], the “Max Resp” value is reported as -42%, the “Curve Class” value is listed as -2.2 and the IC50 entry is given as “Inactive”.

As for `O=C(NC1CCN(Cc2ccccc2)CC1)c1cc(C(=O)NC2CCN(Cc3ccccc3)CC2)cc(C(=O)NC2CCN(Cc3ccccc3)CC2)c1` [MMV019881], the “Max Resp” value is listed as -90%, the “Curve Class” value is listed as -1.1 and the pIC50 is 5.53.

As for `Cl.Clc1cc(Br)ccc1-c1ccc(CNCC2CCNCC2)o1` [MMV019918], the “Max Resp” value is listed as -106%, the “Curve Class” value is given as -1.1 and the pIC50 is 5.73.

For the molecule `O=C(NCCCN1CCC(N2CCCCC2)CC1)C1=Cc2cc(Br)ccc2OC1` [MMV019995], the “Max Resp” value is listed as -99%, the “Curve Class” value is given as -1.1 and the pIC50 is 5.28.

For `Cc1cc(N(C)C)nc(Nc2ccc(NC(=O)Nc3ccccc3)cc2)n1` [MMV020243], the “Max Resp” value is -73%, the “Curve Class” value is -2.2 and the negative logarithm of the IC50 (pIC50) was 4.93.

As for `O=C(NC1CCN(Cc2ccccc2)CC1)c1cc(-c2ccncc2)nc2ccc(Cl)cc12` [MMV020275], the “Max Resp” value is -48%, the “Curve Class” value was -2.2 and the IC50 result is “Inactive”.

Regarding `COc1ccc(-c2cn3c(C(=O)Nc4ccccc4Cl)c(-c4ccccc4)c4c3n2CCCC4)cc1` [MMV020403], the “Max Resp” value is recorded as -73%, the “Curve Class” value is given as -2.2 and the pIC50 is 4.63.

`CCn1c(CN2CCN(Cc3ccccc3)CC2)nc2cc(NC(=O)c3cccs3)ccc21` [MMV020439]: the “Max Resp” value is -25%, the “Curve Class” value is 4 and the IC50 entry is recorded as “Inactive”.

For the molecule `O=C(NC1CCN(Cc2ccccc2)CC1)c1cc(-c2cccnc2)nc2ccc(Cl)cc12` [MMV020490], the “Max Resp” value is reported as -61%, the “Curve Class” value is -2.2 and the pIC50 was 4.53.

For the molecule `CC1CN(C(=O)c2sc3ccccc3c2Cl)CC(C)O1` (stereo not drawn) [MMV020492], the “Max Resp” value was -36%, the “Curve Class” value is listed as -2.2 and the IC50 entry is “Inactive”.

As for `CNCCCNc1ccnc2cc(Cl)ccc12` [MMV020500], the “Max Resp” value is -63%, the “Curve Class” value is -1.2 and the pIC50 is 6.63.

Turning to `CN(C)CCCNCc1ccc(-c2ccc(F)c(Cl)c2)o1.Cl` [MMV020505], the “Max Resp” value is listed as -98%, the “Curve Class” value is listed as -1.1 and the pIC50 was 5.48.

Take `CCN1CCN(Cc2ccc(NC(=O)c3cc4ccc5cccnc5c4[nH]3)cc2)CC1` [MMV020548]: the “Max Resp” value is -56%, the “Curve Class” value is -3 and the IC50 entry is “Inactive”.

For the molecule `CC1CCN(Cc2ccc(NC(=O)c3cc4ccc5cccnc5c4[nH]3)cc2)CC1` [MMV020549], the “Max Resp” value is recorded as -75%, the “Curve Class” value is listed as -2.2 and the pIC50 is 4.83.

With `O=C(Nc1ccc(CN2CCOCC2)cc1)c1ccc(-c2cc(Cl)ccc2Cl)o1` [MMV020651], the “Max Resp” value was -23%, the “Curve Class” value was 4 and the IC50 entry is given as “Inactive”.

As for `CCC(O)c1ccc(Br)cc1NC(=O)c1cccc(Cl)c1` (stereo not drawn) [MMV020654], the “Max Resp” value is given as -37%, the “Curve Class” value is on record as -1.2 and the pIC50 is 5.68.

Take `COc1ccc(-c2nonc2NC(=O)c2cccc(Cl)c2)cc1OC` [MMV020660]: the “Max Resp” value is -67%, the “Curve Class” value is -2.2 and the pIC50 is 4.63.

For the molecule `CC(=O)Nc1nnc(SCc2c(C)cc(C(C)(C)C)cc2C)s1` [MMV020700], the “Max Resp” value is reported as -2%, the “Curve Class” value was 4 and the IC50 result is “Inactive”.

As for `COc1cc(-c2nc(-c3ccccc3)c(-c3ccccc3)[nH]2)cc(OC)c1O` [MMV020750], the “Max Resp” value is reported as -55%, the “Curve Class” value is given as -2.2 and the negative logarithm of the IC50 (pIC50) was 4.43.

`Cl.Oc1ccccc1CNCC12CC3CC(CC(C3)C1)C2` [MMV020788]: the “Max Resp” value is -43%, the “Curve Class” value was -1.2 and the negative-log IC50 (pIC50) was 6.98.

As for `COc1ccc(Br)cc1C1Nc2ccc3ccccc3c2C2=C1C(=O)CC(c1ccccc1)C2` (stereo not drawn) [MMV020885], the “Max Resp” value is -29%, the “Curve Class” value came to 4 and the IC50 result is listed as “Inactive”.

In the case of `Cc1ccc(-c2nc3ccccc3o2)cc1NCc1cc(Cc2ccccc2)ccc1O` [MMV020912], the “Max Resp” value is given as -63%, the “Curve Class” value was -2.2 and the negative-log IC50 (pIC50) was 4.63.

Turning to `CCC(=O)Nc1nnc(Cc2ccc(OC)c(OC)c2)s1` [MMV020942], the “Max Resp” value was -19%, the “Curve Class” value was 4 and the IC50 entry is “Inactive”.
